Results as given in patent US20070049564A1 (Wyeth, priority 2005, published 2007).
≈ marks a conversion by molar mass, not a printed value. Like-named read-outs stand apart in the source and are kept apart here.

What was measured:
E. faecalis GC 2265 = assay: MIC, broth microdilution; settings: Enterococcus faecalis
Staph. = assay: Range of MIC for Staph. strains, including MRSA; settings: Staphylococcus aureus
E. coli GC 2236 = assay: MIC, broth microdilution; settings: Escherichia coli
E. coli GC 1073 = assay: MIC, broth microdilution; settings: Escherichia coli
Procedure: (§1) Antimicrobial susceptibility testing. The in vitro activities of the antibiotics are determined by the broth microdilution method as recommended by the National Committee for Clinical Laboratory Standards (NCCLS) (1). Mueller-Hinton II broth (MHBII)(BBL Cockeysville, Md.) is the medium employed in the testing procedures. Microtiter plates containing serial dilutions of each antimicrobial agent are inoculated with each organism to yield the appropriate density (10^5 CFU/ml) in a 100 μl final volume. The plates are incubated for 18-22 hours at 35° C. in ambient air.
(§2) Representative compounds were first incubated in mouse serum for an hour prior to the in vitro testing against a panel of selected gram-positive and gram-negative bacteria strains. All compounds were also pre-incubated in water for an hour prior to testing as control. Representative compounds of Formula I were incubated in human serum prior to MIC determination.

c. albicans GC 3066 = assay: MIC, broth microdilution
E. faecium GC 2243 = assay: MIC, broth microdilution; settings: Enterococcus faecium
E. coli GC 2270 = assay: MIC, broth microdilution; settings: Escherichia coli
S. aureus GC 6469 = assay: MIC, broth microdilution; settings: Staphylococcus aureus
E. coli GC 2235 = assay: MIC, broth microdilution; settings: Escherichia coli
E. coli GC 2271 = assay: MIC, broth microdilution; settings: Escherichia coli
S. pyogenes GC 4563 = assay: MIC, broth microdilution; settings: Streptococcus pyogenes
S. aureus GC 1079 = assay: MIC, broth microdilution; settings: Staphylococcus aureus
E. coli GC 3226 = assay: MIC, broth microdilution; settings: Escherichia coli
S. typhimurium GC 2172 = assay: MIC, broth microdilution; settings: Salmonella enterica, TYPHIMURIUM
E. coli = assay: Range of MIC for E. coli strains; settings: Escherichia coli
E. faecium GC 4556 = assay: MIC, broth microdilution; settings: Enterococcus faecium
S. agalactiae GC 4564 = assay: MIC, broth microdilution; settings: Streptococcus agalactiae
S. aureus GC 6335 = assay: MIC, broth microdilution; settings: Staphylococcus aureus
E. coli GC 2233 = assay: MIC, broth microdilution; settings: Escherichia coli
E. faecalis GC 4555 = assay: MIC, broth microdilution; settings: Enterococcus faecalis
Procedure: as §1, §2

CC(C)CC(=O)OCOC(=O)N(CC(=O)Nc1cc(N(C)C)c2c(c1O)C(=O)C1=C(O)[C@]3(O)C(=O)C(C(N)=O)=C(O)[C@@H](N(C)C)[C@@H]3C[C@@H]1C2)C(C)(C)C [Example 53, ({[(2-{[(5aR,6aS,7S,10aS)-9-(aminocarbonyl)-4,7-bis(dimethylamino)-1,8,10a,11-tetrahydroxy-10,12-dioxo-5,5a,6,6a,7,10,10a,12-octahydrotetracen-2-yl]amino}-2-oxoethyl)(tert-butyl)amino]carbonyl}oxy)methyl 3-methylbutanoate]
MIC (E. faecalis GC 2265; GC2265, read-out: MINIMAL INHIBITORY CONCENTRATION MIC, Human Serum): 0.5 µg/mL (≈ 0.672 µM) | MIC (E. faecalis GC 2265; GC2265, read-out: MINIMAL INHIBITORY CONCENTRATION MIC, Mouse Serum): 1 µg/mL (≈ 1.34 µM) | MIC (E. faecalis GC 2265; GC2265, read-out: MINIMAL INHIBITORY CONCENTRATION MIC, Water): 4 µg/mL (≈ 5.38 µM) | MIC (Staph.; MRSA, read-out: Range of MIC, Staph (Mouse Serum)): 0.25 to 1 µg/mL (≈ 0.336 to 1.34 µM) | MIC (Staph.; MRSA, read-out: Range of MIC, Staph (Water)): 0.5 to 2 µg/mL (≈ 0.672 to 2.69 µM) | MIC (Staph.; read-out: Minimum inhibitory concentration (MIC), Staph (Human Serum)): 0.5 to 2 µg/mL (≈ 0.672 to 2.69 µM) | MIC (Staph.; read-out: Minimum inhibitory concentration (MIC), Staph (Water)): 0.5 to 2 µg/mL (≈ 0.672 to 2.69 µM) | MIC (E. coli GC 2236; GC2236, read-out: MINIMAL INHIBITORY CONCENTRATION MIC, Human Serum): 16 µg/mL (≈ 21.5 µM) | MIC (E. coli GC 2236; GC2236, read-out: MINIMAL INHIBITORY CONCENTRATION MIC, Mouse Serum): 1 µg/mL (≈ 1.34 µM) | MIC (E. coli GC 2236; GC2236, read-out: MINIMAL INHIBITORY CONCENTRATION MIC, Water): 32 µg/mL (≈ 43 µM) | MIC (E. coli GC 1073; GC1073, read-out: MINIMAL INHIBITORY CONCENTRATION MIC, Human Serum): 16 µg/mL (≈ 21.5 µM) | MIC (E. coli GC 1073; GC1073, read-out: MINIMAL INHIBITORY CONCENTRATION MIC, Mouse Serum): 1 µg/mL (≈ 1.34 µM) | MIC (E. coli GC 1073; GC1073, read-out: MINIMAL INHIBITORY CONCENTRATION MIC, Water): 32 µg/mL (≈ 43 µM) | MIC (c. albicans GC 3066; Candida albicans, GC3066, read-out: MINIMAL INHIBITORY CONCENTRATION MIC): > 64 µg/mL | MINIMAL INHIBITORY CONCENTRATION MIC (c. albicans GC 3066; Human Serum): >64 UG/ML | MINIMAL INHIBITORY CONCENTRATION MIC (c. albicans GC 3066; Mouse Serum): >64 UG/ML | MIC (E. faecium GC 2243; GC2243, read-out: MINIMAL INHIBITORY CONCENTRATION MIC, Human Serum): 0.25 µg/mL (≈ 0.336 µM) | MIC (E. faecium GC 2243; GC2243, read-out: MINIMAL INHIBITORY CONCENTRATION MIC, Mouse Serum): 0.25 µg/mL (≈ 0.336 µM) | MIC (E. faecium GC 2243; GC2243, read-out: MINIMAL INHIBITORY CONCENTRATION MIC, Water): 0.5 µg/mL (≈ 0.672 µM) | MIC (E. coli GC 2270; GC2270, read-out: MINIMAL INHIBITORY CONCENTRATION MIC, Human Serum): 8 µg/mL (≈ 10.8 µM) | MIC (E. coli GC 2270; GC2270, read-out: MINIMAL INHIBITORY CONCENTRATION MIC, Mouse Serum): 1 µg/mL (≈ 1.34 µM) | MIC (E. coli GC 2270; GC2270, read-out: MINIMAL INHIBITORY CONCENTRATION MIC, Water): 32 µg/mL (≈ 43 µM) | MIC (S. aureus GC 6469; GC6469, read-out: MINIMAL INHIBITORY CONCENTRATION MIC, Human Serum): 1 µg/mL (≈ 1.34 µM) | MIC (S. aureus GC 6469; GC6469, read-out: MINIMAL INHIBITORY CONCENTRATION MIC, Mouse Serum): 1 µg/mL (≈ 1.34 µM) | MIC (S. aureus GC 6469; GC6469, read-out: MINIMAL INHIBITORY CONCENTRATION MIC, Water): 2 µg/mL (≈ 2.69 µM) | MIC (E. coli GC 2235; GC2235, read-out: MINIMAL INHIBITORY CONCENTRATION MIC, Human Serum): 8 µg/mL (≈ 10.8 µM) | MIC (E. coli GC 2235; GC2235, read-out: MINIMAL INHIBITORY CONCENTRATION MIC, Mouse Serum): 0.5 µg/mL (≈ 0.672 µM) | MIC (E. coli GC 2235; GC2235, read-out: MINIMAL INHIBITORY CONCENTRATION MIC, Water): 32 µg/mL (≈ 43 µM) | MIC (E. coli GC 2271; GC2271, read-out: MINIMAL INHIBITORY CONCENTRATION MIC, Human Serum): 8 µg/mL (≈ 10.8 µM) | MIC (E. coli GC 2271; GC2271, read-out: MINIMAL INHIBITORY CONCENTRATION MIC, Mouse Serum): 0.5 µg/mL (≈ 0.672 µM) | MIC (E. coli GC 2271; GC2271, read-out: MINIMAL INHIBITORY CONCENTRATION MIC, Water): 16 µg/mL (≈ 21.5 µM) | MIC (S. pyogenes GC 4563; GC4563, read-out: MINIMAL INHIBITORY CONCENTRATION MIC, Human Serum): 0.25 µg/mL (≈ 0.336 µM) | MIC (S. pyogenes GC 4563; GC4563, read-out: MINIMAL INHIBITORY CONCENTRATION MIC, Mouse Serum): 0.12 µg/mL (≈ 0.161 µM) | MIC (S. pyogenes GC 4563; GC4563, read-out: MINIMAL INHIBITORY CONCENTRATION MIC, Water): 0.25 µg/mL (≈ 0.336 µM) | MIC (S. aureus GC 1079; GC1079, read-out: MINIMAL INHIBITORY CONCENTRATION MIC, Human Serum): 0.5 µg/mL (≈ 0.672 µM) | MIC (S. aureus GC 1079; GC1079, read-out: MINIMAL INHIBITORY CONCENTRATION MIC, Mouse Serum): 0.5 µg/mL (≈ 0.672 µM) | MIC (S. aureus GC 1079; GC1079, read-out: MINIMAL INHIBITORY CONCENTRATION MIC, Water): 1 µg/mL (≈ 1.34 µM) | MIC (E. coli GC 3226; GC3226, read-out: MINIMAL INHIBITORY CONCENTRATION MIC, Human Serum): 16 µg/mL (≈ 21.5 µM) | MIC (E. coli GC 3226; GC3226, read-out: MINIMAL INHIBITORY CONCENTRATION MIC, Mouse Serum): 1 µg/mL (≈ 1.34 µM) | MIC (E. coli GC 3226; GC3226, read-out: MINIMAL INHIBITORY CONCENTRATION MIC, Water): 32 µg/mL (≈ 43 µM) | MIC (S. typhimurium GC 2172; read-out: MINIMAL INHIBITORY CONCENTRATION MIC, Human Serum): 64 µg/mL (≈ 86 µM) | MIC (S. typhimurium GC 2172; read-out: MINIMAL INHIBITORY CONCENTRATION MIC, Mouse Serum): 4 µg/mL (≈ 5.38 µM) | MIC (S. typhimurium GC 2172; read-out: MINIMAL INHIBITORY CONCENTRATION MIC, Water): > 64 µg/mL | MIC (E. coli; 20 h, read-out: Range of MIC, E. coli (Mouse Serum)): 0.25 to 1 µg/mL (≈ 0.336 to 1.34 µM) | MIC (E. coli; read-out: Minimum inhibitory concentration (MIC), E. coli (Human Serum)): 8 to 16 µg/mL (≈ 10.8 to 21.5 µM) | MIC (E. coli; read-out: Minimum inhibitory concentration (MIC), E. coli (water)): 16 to 64 µg/mL (≈ 21.5 to 86 µM) | MIC (E. coli; read-out: Range of MIC, E. coli (Water)): 16 to 64 µg/mL (≈ 21.5 to 86 µM) | MIC (E. faecium GC 4556; GC4556, read-out: MINIMAL INHIBITORY CONCENTRATION MIC, Human Serum): 2 µg/mL (≈ 2.69 µM) | MIC (E. faecium GC 4556; GC4556, read-out: MINIMAL INHIBITORY CONCENTRATION MIC, Mouse Serum): 0.5 µg/mL (≈ 0.672 µM) | MIC (E. faecium GC 4556; GC4556, read-out: MINIMAL INHIBITORY CONCENTRATION MIC, Water): 2 µg/mL (≈ 2.69 µM) | MIC (S. agalactiae GC 4564; GC4564, read-out: MINIMAL INHIBITORY CONCENTRATION MIC, Human Serum): 0.5 µg/mL (≈ 0.672 µM) | MIC (S. agalactiae GC 4564; GC4564, read-out: MINIMAL INHIBITORY CONCENTRATION MIC, Mouse Serum): < 0.06 µg/mL | MIC (S. agalactiae GC 4564; GC4564, read-out: MINIMAL INHIBITORY CONCENTRATION MIC, Water): 0.5 µg/mL (≈ 0.672 µM) | MIC (S. aureus GC 6335; GC6335, read-out: MINIMAL INHIBITORY CONCENTRATION MIC, Human Serum): 0.5 µg/mL (≈ 0.672 µM) | MIC (S. aureus GC 6335; GC6335, read-out: MINIMAL INHIBITORY CONCENTRATION MIC, Mouse Serum): 0.5 µg/mL (≈ 0.672 µM) | MIC (S. aureus GC 6335; GC6335, read-out: MINIMAL INHIBITORY CONCENTRATION MIC, Water): 1 µg/mL (≈ 1.34 µM) | MIC (E. coli GC 2233; GC2233, read-out: MINIMAL INHIBITORY CONCENTRATION MIC, Human Serum): 16 µg/mL (≈ 21.5 µM) | MIC (E. coli GC 2233; GC2233, read-out: MINIMAL INHIBITORY CONCENTRATION MIC, Mouse Serum): 1 µg/mL (≈ 1.34 µM) | MIC (E. coli GC 2233; GC2233, read-out: MINIMAL INHIBITORY CONCENTRATION MIC, Water): 32 µg/mL (≈ 43 µM) | MIC (E. faecalis GC 4555; GC4555, read-out: MINIMAL INHIBITORY CONCENTRATION MIC, Human Serum): 2 µg/mL (≈ 2.69 µM) | MIC (E. faecalis GC 4555; GC4555, read-out: MINIMAL INHIBITORY CONCENTRATION MIC, Mouse Serum): 0.5 µg/mL (≈ 0.672 µM) | MIC (E. faecalis GC 4555; GC4555, read-out: MINIMAL INHIBITORY CONCENTRATION MIC, Water): 2 µg/mL (≈ 2.69 µM)
